# Measured values as given in article PMC10852989, “Combining cisplatin and a STING agonist into one molecule for metalloimmunotherapy of cancer” (National Science Review, 2024).
# Like-named read-outs stand apart in the source and are kept apart here.
# What was measured:
# [1] = test system: Pan02 cells; test: 72 h MTT cytotoxicity, Pan02; type: cell-based, mouse
# Method: (§1) Cytotoxicity. Tumor cells were cultured overnight after inoculation in RPMI-1640 medium or DMEM supplemented with 10% FBS. All cultures were maintained in an incubator in a highly humidified atmosphere of 95% air with 5% CO2 at 37 °C. Growth inhibition was measured with an MTT assay. Briefly, 2800–7000 cells per well in culture medium (100 μL) were plated in 96-well plates (Corning). The cells were treated in triplicate with different concentrations of complexes at 37 ℃ for 72 h. Stock solutions of CDDP and oxoplatin were prepared in PBS, while stock solutions of conjugates I and II and the ligand MSA-2 were prepared in DMSO. The stock solutions were diluted in complete medium (DMSO < 0.5%). An aliquot of MTT solution (40 μL, 2.5 mg·mL^–1) in PBS buffer was added to each well and incubated for 4 h. The supernatant was removed and DMSO (150 μL) was added to solubilize the formazan crystals. The amount of formazan was determined using a microplate reader at 570 nm after the plates were shaken for 30 min. The optical density (OD) was used to calculate the percentage of viable cells relative to untreated control values. Background readings for MTT incubated in cell-free medium were subtracted from each value before calculation. […] The mean IC50 values were calculated using data from three replicates.
# [2] = test system: PANC-1 cells; test: cellular uptake of Pt by ICP-MS, PANC-1; type: cell-based, human; details: PANC-1 cells, 6 h incubation, ICP-MS
# Method: Cellular uptake. All incubations were carried out in the dark. After the designated incubation period, the medium was removed, and the cells were harvested with trypsin and rinsed twice with PBS (1×, 20 mM, pH 7.4), followed by digestion and ICP-MS.
# Cancer cells were seeded in a 6-well plate at a density of 5×10^5 cells per well. After incubation for 24 h, the cells were treated with each complex for 6 h.
# Cancer cells preincubated with metabolic inhibitor (MIs) were also evaluated. These cells were preincubated with 2-deoxy-D-glucose and oligomycin (50 mM and 5 μM, respectively, 1 h) or NH4Cl (50 mM, 1 h) at 37 ℃ followed by incubation with DMEM containing CDDP, I or II at 37 ℃ for 6 h.
# Digestion. Cell pellets were collected by centrifugation and then digested with nitric acid (100 µL) for 2 h at 95 °C, followed by the addition of H2O2 (50 µL) at 95 °C for 0.5 h. HCl (100 µL) was added and kept at 95 °C until the total volume was less than 20 μL. Water was then added to dilute the solution to 1 mL, and the final Pt content was determined by ICP-MS.
# [3] = test system: MCF-7 cells; test: 72 h MTT cytotoxicity, MCF-7; type: cell-based, human
# Method: as §1
# [4] = H&E histology of major organs after treatment; type: in vivo, mouse; details: C57BL/6 mice after treatment, 10.0 μmol/kg
# Method: Hematoxylin and eosin staining. Tissue samples were subjected to histopathological examination using hematoxylin and eosin (H&E) staining. Mouse organs (heart, liver, spleen, lungs and kidneys) were collected in 4% paraformaldehyde for proper fixation and then embedded in paraffin using a tissue embedding machine. Sections were prepared in an orderly manner by dewaxing, dehydration, and H&E staining. The tissue morphology was observed under a fluorescence microscope (Olympus BX41, Japan).
# [5] = test system: Pan02 tumors; test: in vivo antitumor activity, C57BL/6 mice bearing Pan02 tumors; set-up: species or system mouse; details: C57BL/6 mice, Pan02 tumors, 10.0 μmol/kg every 2 days for 16 days, intravenous
# Method: In vivo antitumor activity. Female C57BL/6 mice (6–8 weeks old) were subcutaneously implanted with pan02 cells (2 × 10^6) in the right flank. Once the tumor volume reached approximately 60 mm^3, the mice were assigned to 4 groups at random (n = 5–8) and received treatment with PBS, CDDP (10.0 μmol/kg), I (10.0 μmol/kg), or a mixture of CDDP (10.0 μmol/kg) and MSA-2 (10.0 μmol/kg). The mice received 9 treatments. Changes in body weight and tumor volume were recorded. All the experimental procedures utilizing mice were performed in accordance with the Guidelines for Care and Use of Laboratory Animals of Nanjing University and experiments were approved by the Institutional Animal Care and Use Committee of Nanjing University (IACUC-2101001, SL-019-00).
# [6] = test system: HK-2 cells; test: 72 h MTT cytotoxicity, HK-2; type: cell-based
# Method: as §1
# [7] = test system: Caov3 cells; test: 72 h MTT cytotoxicity, Caov3; type: cell-based, human
# Method: as §1
# [8] = test system: BMDCs cultured with Pan02 cell CM; test: IFN-β ELISA of BMDCs incubated with conditioned medium of drug-treated Pan02 cells; type: cell-based, mouse; details: Pan02 treated 48 h at 5 μM (Pt-E-I 20 μM); BMDCs 50% CM, 18 h
# Method: (§2) ELISA. Bone marrow-derived dendritic cells (BMDCs) were prepared according to the following method. Briefly, femurs and tibias were removed from 4-6 week-old C57BL/6 mice, and the bone marrow cells were isolated. The bone marrow cells were incubated in T cell medium [RPMI-1640 medium (with GlutaMAX), supplemented with 10% FBS, 1% HEPES, 1% NEAA, 1% sodium pyruvate, and 0.1% βME] containing 20 ng/mL GM-CSF for 6 days after erythrocyte lysis, during which time half of the medium was replaced with fresh T cell medium once and the cytokines were supplemented. Then, the BMDCs were harvested on day 7 for further study.
# Pan02 tumor cells were treated with various drugs at a concentration of 5 μM for 48 h, and then the drug-pretreated tumor cell supernatant was obtained by centrifugation at a speed of 12000 rpm/min for 5 min and used as conditioned media (CM) subsequently.
# (§3) BMDCs were cultured with 50% CM plus 50% fresh medium for 18 h. In addition, BMDCs were cultured with fresh medium containing different complexes or mixtures (15 μM CDDP and I, a mixture of I and 8 equiv. AsA, and equal AsA). Then, all the BMDC supernatant was collected and centrifuged for subsequent cytokine analysis using ELISA kits, which were performed according to the manufacturer’s instructions.
# [9] = test system: BxPC3 cells; test: 72 h MTT cytotoxicity, BxPC3; type: cell-based, human
# Method: as §1
# [10] = test system: PANC-1 cells; test: 72 h MTT cytotoxicity, PANC-1; type: cell-based, human
# Method: as §1
# [11] = test system: cancer cell lines (MCF-7, Caov3, PANC-1, BxPC3, Pan02); test: 72 h MTT cytotoxicity, panel of cancer cell lines; type: cell-based; details: read-out: IC50 in these cancer cell lines
# Method: as §1
# [12] = test system: STING pathway in BMDCs; test: IFN-β and IL-6 ELISA in supernatants of BMDCs treated with complexes; type: cell-based, mouse; details: 18 h, ELISA, 15 μM
# Method: as §2, §3
# [13] = reduction by ascorbic acid (AsA) followed by 1H-/195Pt-NMR; type: physicochemical; details: 20 mM, 8 equiv. AsA, 5:1 d6-DMSO:D2O, 37 °C, dark
# Method: Reduction of I and II. Samples were prepared by reacting I or II (20 mM) with 8 equiv. AsA in 5:1 d6-DMSO:D2O solutions. The time course of the reaction was monitored by ^1H-NMR and ^195Pt-NMR after incubation of the samples were incubated at 37 °C for 0, 3, 6, 12, 24, 36, 48, 60, 72, 84, 96, or 120 h in the dark.
# [14] = octanol-water partition coefficient, shake-flask, ICP-MS; type: physicochemical; details: n-octanol / phosphate buffer 10 mM pH 7.4, room temperature
# Method: Lipid-water partition coefficient. The shake-flask method was used to measure the partition coefficients of CDDP, I and II. Briefly, a mixture containing equal volumes of n-octanol and phosphate buffer (10 mM, pH 7.4) was shaken on a mechanical shaker at room temperature for 24 h. Complexes (10 mM) in phosphate buffer (presaturated with n-octanol) were mixed with an equal volume of n-octanol (presaturated with phosphate buffer), and the mixture was shaken for 24 h at room temperature. Centrifugation was carried out at 2500 rpm for 30 min to separate the two phases. The aqueous layer was carefully separated, and the Pt content in the initial and final aqueous phases was analyzed by inductively coupled plasma mass spectrometry (ICP-MS). The log PO/W was measured using the following equation: log PO/W = log [(Ptinitial ‒ Ptfinal)/Ptfinal].
Structure (SMILES),IC50 [1] [µM],cellular Pt content [2] [ng Pt/mg protein],IC50 [3] [µM],IC50 ([6]; human normal kidney cell line) [µM],IC50 [7] [µM],IFN-β secretion by BMDCs incubated with treated Pan02 cell CM [8],IC50 [9] [µM],IC50 [10] [µM],also measured
"[NH2][Pt]([NH2])([Cl])[Cl] [CDDP, cisplatin]",8.3 ± 0.6,1.7,5.4 ± 0.3,8.2 ± 0.5,26.8 ± 2.2,slightly increased,1.6 ± 0.1,11.1 ± 1.3,histological findings in major organs [4]: substantial blood cell stasis in the liver blood sinuses and thickening of the alveolar wall as well as large infiltrates of inflammatory cells in the trachea and bronchus; tumor volume [5]: 200.2 ± 20.6 mm^3
COc1cc2cc(C(=O)CCC(=O)O)sc2cc1OC [MSA-2],–,–,–,–,–,moderate,–,–,"IC50 [11]: > 50 µM; IC50 ([1]; Mus musculus, Pan02): > 50 µM; IC50 ([3]; Homo sapiens, MCF7): > 50 µM; IC50 ([6]; HK-2, human normal kidney cell line): > 50 µM; IC50 ([7]; Homo sapiens, Caov-3): > 50 µM; IC50 ([9]; Homo sapiens, BXPC-3): > 50 µM; IFN-β secretion by BMDCs [12]: robust; IL-6 secretion by BMDCs [12]: robust; IC50 ([10]; Homo sapiens, PANC-1): > 50 µM"
"N.N.[Cl-].[Cl-].[OH-].[OH-].[Pt+4] [Oxoplatin, Cis-diamminedichloro-trans-dihydroxyplatinum]",> 50,–,8.2 ± 0.7,38.7 ± 4.1,> 50,–,> 50,> 50,–
COc1cc2cc(C(=O)CCC(=O)[O][Pt]([NH2])([NH2])([Cl])([Cl])[O]C(=O)CCC(=O)c3cc4cc(OC)c(OC)cc4s3)sc2cc1OC [conjugate II],8.4 ± 0.7,2.3,> 64,3.6 ± 1.2,5.3 ± 0.4,–,4.9 ± 0.8,6.9 ± 0.9,time at which reduction by AsA finished [13]: 120 h; octanol-water partition coefficient (logPo/w) [14]: 2.1
